Laboratory results from patent publication US20080194575A1, “Treatment for non-alcoholic-steatohepatitis” (priority 2006, published 2008).

Columns and labels:
Assay type in all cases: in vivo, C56BL/6 mice
[1] = test system: fatty acid translocase/CD36; experiment: Fatty acid translocase/CD36 gene expression in liver by real time RT-PCR; conditions: HSD 4 weeks, compound A 30 mg/kg daily subcutaneous (FIG. 4E)
Method: (§1) Animals, feeding and treatments Two groups of 8 week old male C56BL/6 mice were set under a high sucrose containing diet together with 1% Orotic acid (HSD) for 4 weeks (TD 02366, Tekland Mills) (Feldstein et al. J Hepatol, 39:978-983(2003)). All animals were purchased from Jackson Laboratories and were treated and handled following the National Academy of Sciences criteria (NIH publication 86-23 revised 1985). One group of animals received a daily subcutaneous injection of compound A at a concentration of 30 mg/kg (compound A) and the second group received vehicle with the same frequency (Vehicle). Additionally, a third group of mice was fed under a normal chow diet (control).
(§2) RNA isolation and quantitative Real Time PCR RNA from frozen liver tissue was extracted with PeqGOLD-RNAPure kit (Peqlab). First strand synthesis was performed with Oligo dT primers and reverse transcription with M-MLV Reverse Transcriptase (Invitrogen Corp.) Quantitative Real Time PCR was performed with the AbbyPrism 7300 Real-Time PCR system from Applied Biosystems by using SYBR Green Reagent (Applied biosystems). Real time reactions were performed twice in triplicates. All values were normalized to the level of GAPDH. Primer sequences are detailed in Table 1.

adiponectin = experiment: Serum and liver adiponectin expression by ELISA; conditions: after 4 weeks of HSD, compound A 30 mg/kg daily subcutaneous
Method: as §1
(§3) Serum analysis Blood was taken from mice after fasting and glucose levels were measured with Ascensia Elite sensor (Bayer). Serum Insulin (Linco Research) and Adiponectin (R&D systems) levels were quantified by ELISA.

[2] = Serum analysis after fasting in HSD fed mice: blood glucose, serum insulin (insulin resistance); conditions: HSD 4 weeks, compound A 30 mg/kg daily subcutaneous
Method: as §1, §3

IL-6 = IL-6 expression in liver by Real Time RT-PCR; conditions: HSD 4 weeks, compound A 30 mg/kg daily subcutaneous, HSD/vehicle vs HSD/compound A (FIG. 3A)
Method: as §1, §2

Catalase = Catalase mRNA expression in liver by real time RT-PCR; conditions: HSD 4 weeks, compound A 30 mg/kg daily subcutaneous, vs vehicle and chow controls
Method: as §1, §2

[3] = test system: Cytochrome P450 2E1 (CYP2E1); experiment: CYP2E1 mRNA expression in liver by real time RT-PCR; conditions: HSD 4 weeks, compound A 30 mg/kg daily subcutaneous (FIG. 5A)
Method: as §1, §2

[4] = test system: HSD induced hepatic steatosis; experiment: Histological evaluation of HSD induced hepatic steatosis (H&E semiquantitative score, Oil-Red-O staining); conditions: HSD 4 weeks
Method: as §1
(§4) Histological evaluation Livers from mice were harvested and after fixation with formaldehyde embedded in paraffin for further histological evaluation. Hematoxylin & Eosin staining was performed in liver sections and steatosis was assessed following a semiquantitative scoring system. Oil red 0 staining was performed to evidence the presence of intracellular lipds. Liver fibrosis was determined by Sirius Red which stains collagen fibres. Scoring of fibrosis was performed following the Brunt system. Additionally, immunohistochemistry (IHC) was performed on cryosections for the polyclonal anti-P65 (A) antibody, dilution 1/50 and anti-TNFα antibody, dilution 1/20 (both from Santa Cruz Biotechnology Inc.). […]

CPT-1 = CPT-1 mRNA expression in liver by real time RT-PCR; conditions: HSD 4 weeks, compound A 30 mg/kg daily subcutaneous, vs vehicle (FIG. 4B)
Method: as §1, §2

NF-κB = experiment: HSD induced NF-κB activation in liver (I-κBα western blot, p65 immunohistochemistry); conditions: HSD 4 weeks, compound A 30 mg/kg daily subcutaneous
Method: as §1, §4

MnSOD = MnSOD mRNA expression in liver by real time RT-PCR; conditions: HSD 4 weeks, compound A 30 mg/kg daily subcutaneous, vs vehicle and chow controls (FIG. 5B)
Method: as §1, §2

PPARα = PPARα expression in liver (real time RT-PCR, western blot); conditions: HSD 4 weeks
Method: as §1
(§5) Western blot analysis Whole liver protein extracts were obtained by using ice- cold buffer (20 mM Tris pH 7.5, 150 mM NaCl, 1 mM EGTA, 1 mM EDTA, 1% Triton X-100, 2.5 mM sodium pyrophosphate and cocktail of protease inhibitors). […]
as §2, with “Real time reactions were performed twice in triplicates. All values were normalized to the level of GAPDH. Primer sequences are detailed in Table 1.” left out

hepatocyte apoptosis = experiment: TUNEL assay on frozen liver sections (hepatocyte apoptosis); conditions: HSD 4 weeks, compound A 30 mg/kg daily subcutaneous
Method: as §1
(§6) Detection of apoptosis Apoptotic cell death was determined in liver tissue by using two difference strategies. Caspase-3 activity was analysed in whole liver extracts. Proteins were extracted with the lysis buffer containing 1M Hepes, 10% CHAPS, 0.5 EDTA, 1 m DTT and 0.1 M pefa-block and further incubated with the fluorescent substrate Ac-DEVD-AMC (Biomol). The enzymatic activity was then measured at λ. excitation 390 nm and λ emission 510 nm and the result was corrected with the protein concentration. Additionally, we performed a TUNEL assay on frozen liver sections using the “In situ cell death detection Kit, POD” (Roche Diagnostics Corp.) following manufacturer's instructions.

PPARγ = PPARγ expression in liver on the mRNA and protein level; conditions: HSD 4 weeks
Method: as §1, §5
as §2, with “Real time reactions were performed twice in triplicates. All values were normalized to the level of GAPDH. Primer sequences are detailed in Table 1.” left out

TNF = TNF expression in liver by Real Time RT-PCR; conditions: HSD 4 weeks, compound A 30 mg/kg daily subcutaneous, HSD/vehicle vs HSD/compound A (FIG. 3B)
Method: as §1, §2

[5] = High sucrose diet (HSD) induced obesity in mice: body weight gain and abdominal fat; conditions: HSD 4 weeks, compound A 30 mg/kg daily subcutaneous
Method: as §1

Caspase-3 = Caspase-3 activity in whole liver extracts (Ac-DEVD-AMC); conditions: HSD 4 weeks, compound A 30 mg/kg daily subcutaneous (FIG. 6A)
Method: as §1, §6

[6] = test system: HSD induced liver fibrosis; experiment: Liver fibrosis by Sirius red staining, Brunt score; conditions: HSD 4 weeks
Method: as §1, §4

Acyl-CoA oxidase (ACOX) = Acyl-CoA oxidase (ACOX) mRNA expression in liver by real time RT-PCR; conditions: HSD 4 weeks, compound A 30 mg/kg daily subcutaneous, vs vehicle (FIG. 4C)
Method: as §1, §2

[7] = compound A 30 mg/kg daily subcutaneous, vs HSD/vehicle

With `CC(=O)N1CCN(C(=O)c2ccc(Nc3nccc(-c4ccc(Cl)cc4)n3)cc2)CC1` [compound A, 1-(4-{4-[4-(4-Chloro-phenyl)-pyrimidin-2-ylamino]-benzoyl}-piperazin-1-yl)-ethanone] the CD36 gene expression [1] was “upregulated in HSD/compound A mice”, the “adiponectin expression in serum” value (adiponectin; vs chow controls (FIG. 3C)) was “no significant change in adiponectin expression” and the “adiponectin expression in liver” value (adiponectin; vs chow controls (FIG. 3D)) was “no significant change in adiponectin expression”. For the same compound, the serum insulin levels ([2]; ELISA, vs HSD/vehicle (FIG. 1C)) was “roughly significantly less blood insulin that HSD/vehicle treated animals (p=0.06)”, the blood glucose levels ([2]; fasted, HSD/vehicle vs HSD/compound A (FIG. 1B)) was “blood glucose levels were significantly higher in this group compared to animals treated with either HSD/compound A” and the “IL-6 mRNA expression” value (IL-6) was “upregulation of IL-6 and TNF mRNA expression was found compared to the HSD/compound A”. The “Catalase mRNA expression” value (Catalase) was “significantly higher in compound A treated animals compared to vehicle treated mice and chow controls”, the “CYP2E1 mRNA expression” value [3] was “reduced HSD induced upregulation of CYP2E1 and its expression was not significantly different than the chow control group” and the “fat deposits in liver (Oil-Red-O staining)” value ([4]; compound A 30 mg/kg daily subcutaneous) was “only minor microvesicular fat dropples could be observed in some of the HSD/compound A mice analysed”. The “liver histology / steatosis (H&E staining)” value ([4]; compound A 30 mg/kg daily subcutaneous (FIG. 2)) was “liver histology similar to chow control animals with no clear evidence of fat accumulation”, the “CPT-1 mRNA expression” value (CPT-1) was “up-regulated in livers from mice that received the compound A compared to vehicle treated animals” and the “I-κBα levels, western blot of whole liver extracts” value (NF-κB; lower levels in HSD/vehicle) was “I-κBα was clearly present in HSD/compound A”. For the same compound, the “NF-κB activation, p65 immunohistochemistry on liver sections” value (NF-κB; strong activation in HSD/vehicle) was “stainings were practically negative in HSD/compound A”, the “MnSOD mRNA expression” value (MnSOD) was “significantly higher in compound A treated animals compared to vehicle treated mice and chow controls” and the “PPARα protein, western blot” value (PPARα; [7]) was “higher presence of PPARα in livers from HSD/compound A mice than in HSD/vehicle animals”. For the same compound, the “PPARα mRNA expression” value (PPARα; real time RT-PCR, compound A 30 mg/kg daily subcutaneous (FIG. 4A)) was “significantly higher expression in liver from HSD fed mice treated with compound A”, the TUNEL-positive cells (hepatocyte apoptosis) was “increase in TUNEL-positive cells, which could be blocked using compound A” and the “PPARγ mRNA expression” value (PPARγ; compound A 30 mg/kg daily subcutaneous (FIG. 4D)) was “upregulated in livers derived from these animals”. For the same compound, the “PPARγ protein expression, western blot” value (PPARγ; [7]) was “more pronounced presence in compound A mice”, the “TNF mRNA expression” value (TNF) was “upregulation of IL-6 and TNF mRNA expression was found compared to the HSD/compound A” and the “fat accumulation in the abdominal cavity” value ([5]; macroscopical, vs vehicle and chow control) was “less amount of fat that was not significantly different compared to control chow mice”. The body weight gain ([5]; vs HSD/vehicle (FIG. 1A)) was “significant weight gain was observed in vehicle treated mice after 4 weeks of HSD feeding compared to compound A treated mice”, the “caspase 3 activity” value (Caspase-3) was “strongly reduced caspase 3 activity to a level as found in chow control mice” and the “fibrosis score according to Brunt score” value ([6]; compound A 30 mg/kg daily subcutaneous, HSD/vehicle score 1.6) was “virtually zero”. For the same compound, the “liver collagen expression (Sirius red staining)” value ([6]; liver sections, compound A 30 mg/kg daily subcutaneous (FIG. 6B)) was “no significant degree of collagen expression could be detected” and the “ACOX mRNA expression” value (Acyl-CoA oxidase (ACOX)) was “up-regulated in livers from mice that received the compound A compared to vehicle treated animals”.
